Data taken from the NIST ThermoML archive (doi:10.1007/s10765-005-5571-9).

How the values were obtained:
[1] = 298.15 K; 101.3 kPa; Liquid
[2] = xn = mol fraction of the nth substance listed; conditions: 298 K, 101.3 kPa, Liquid

C=C(C)C(=O)OC [methyl methacrylate]
Conditions	mass density [kg/m3]
[1]	937.628

C=Cc1ccccc1 [styrene] + CC(=O)OCCC(C)C
Conditions	mass density [kg/m3]
[2], x2 = 0	901.941

C=C(C)C(=O)OC [methyl methacrylate] + CC(=O)OCCC(C)C
Conditions	mass density [kg/m3]
[2], x2 = 0	937.628

C=CC(=O)OCCCC [butyl 2-propenoate]
Conditions	mass density [kg/m3]
[1]	893.947

C=Cc1ccccc1 [styrene]
Conditions	mass density [kg/m3]
[1]	901.941

CC(=O)OCCC(C)C [3-methylbutyl ethanoate]
Conditions	mass density [kg/m3]
[1]	867.356

CC(=O)OCCC(C)C [3-methylbutyl ethanoate] + C=CC(=O)OCCCC
Conditions	mass density [kg/m3]
[2], x1 = 1	867.356

C=CC(=O)OCC [ethyl propenoate]
Conditions	mass density [kg/m3]
[1]	916.124

CC(=O)OCCC(C)C [3-methylbutyl ethanoate] + C=Cc1ccccc1
[2]
Conditions	mass density [kg/m3]
x1 = 0.0293	900.833
x1 = 0.0529	899.946
x1 = 0.0997	898.18
x1 = 0.1502	896.274
x1 = 0.2	894.422
x1 = 0.2502	892.59
x1 = 0.3064	890.541
x1 = 0.3509	888.929
x1 = 0.4042	887.046
x1 = 0.4508	885.398
x1 = 0.5011	883.646
x1 = 0.5571	881.719
x1 = 0.6002	880.257
x1 = 0.6507	878.546
x1 = 0.7003	876.895
x1 = 0.7514	875.198
x1 = 0.7999	873.614
x1 = 0.8507	871.983
x1 = 0.9005	870.41
x1 = 0.9499	868.881
x1 = 0.9747	868.119
x1 = 1	867.356

CC(=O)OCCC(C)C [3-methylbutyl ethanoate] + C=C(C)C(=O)OC
[2]
Conditions	mass density [kg/m3]
x1 = 0.0263	934.984
x1 = 0.0515	932.526
x1 = 0.1007	927.871
x1 = 0.1599	922.52
x1 = 0.2002	919.025
x1 = 0.25	914.86
x1 = 0.3053	910.408
x1 = 0.3502	906.93
x1 = 0.4005	903.17
x1 = 0.4504	899.578
x1 = 0.5005	896.102
x1 = 0.5502	892.767
x1 = 0.6005	889.513
x1 = 0.6538	886.188
x1 = 0.7003	883.384
x1 = 0.7508	880.451
x1 = 0.8003	877.66
x1 = 0.85	874.956
x1 = 0.9002	872.311
x1 = 0.9499	869.798
x1 = 0.9751	868.558
x1 = 1	867.356

C=CC(=O)OCCCC [butyl 2-propenoate] + CC(=O)OCCC(C)C
[2]
Conditions	mass density [kg/m3]
x2 = 0	893.947
x2 = 0.0257	893.222
x2 = 0.0496	892.552
x2 = 0.1035	891.059
x2 = 0.1504	889.769
x2 = 0.2	888.407
x2 = 0.2504	887.04
x2 = 0.2999	885.689
x2 = 0.3512	884.304
x2 = 0.4001	882.985
x2 = 0.4521	881.596
x2 = 0.5	880.304
x2 = 0.55	878.984
x2 = 0.6	877.664
x2 = 0.65	876.356
x2 = 0.7003	875.048
x2 = 0.7502	873.751
x2 = 0.7998	872.467
x2 = 0.85	871.176
x2 = 0.9	869.889
x2 = 0.95	868.618
x2 = 0.9752	867.98

C=CC(=O)OCC [ethyl propenoate] + CC(=O)OCCC(C)C
[2]
Conditions	mass density [kg/m3]
x2 = 0	916.124
x2 = 0.031	913.999
x2 = 0.0501	912.721
x2 = 0.0999	909.503
x2 = 0.1505	906.326
x2 = 0.2012	903.286
x2 = 0.2501	900.442
x2 = 0.301	897.604
x2 = 0.3512	894.897
x2 = 0.402	892.257
x2 = 0.4505	889.84
x2 = 0.501	887.406
x2 = 0.5502	885.117
x2 = 0.6002	882.87
x2 = 0.6518	880.634
x2 = 0.7001	878.602
x2 = 0.7499	876.582
x2 = 0.8008	874.573
x2 = 0.8514	872.644
x2 = 0.9001	870.846
x2 = 0.9503	869.055
x2 = 0.9752	868.197

CC(=O)OCCC(C)C [3-methylbutyl ethanoate] + C=CC(=O)OCC
Conditions	mass density [kg/m3]
[2], x1 = 1	867.356
